Results: patent US20090215813A1, “HISTONE DEACETYLASE INHIBITORS AS IMMUNOSUPPRESSANTS” (priority 2003, published 2009)

Legend:
[1] = system: heart graft, strain combination Lewis and BN; assay: Rat heart transplantation, graft survival and histology; type: in vivo; conditions: for effect of co-administration: test not named
Source text: Rat Heart Transplantation
The strain combination used is Male Lewis (RT1 haplotype) and BN (RT1 haplotype). The animals are anaesthetized using inhalation isofluorane. […] The aorta is ligated and divided distal to the first branch and the brachiocephalic trunk is divided at the first bifurcation. The left pulmonary artery is ligated and divided and the right side divided but left open. All other vessels are dissected free, ligated and divided and the donor heart is removed into iced saline.
The recipient is prepared by dissection and cross-clamping of the infra-renal abdominal aorta and vena cava. The graft is implanted with end-to-side anastomoses, using 10/0 monofilament suture, between the donor brachiocephalic trunk and the recipient aorta and the donor right pulmonary artery to the recipient vena cava. The clamps are removed, the graft tethered retroabdominally, the abdominal contents washed with warm saline and the animal is closed and allowed to recover under a heating lamp. Animals are treated with saline (control); an HDAI compound e.g. a compound of formula (I), e.g. N-hydroxy-3-[4-[[[2-(2-methyl-1H-indol-3-yl)-ethyl]-amino]methyl]phenyl]-2E-2-propenamide (“compound P1”); 40-O-(2-hydroxyethyl)-rapamycin (“compound P2”) prepared according to the methods described in WO 94/09010; FTY720 (“compound P3”) prepared according to Example 28 of WO 94/08943, or combinations of the each as indicated. Graft survival is monitored by daily palpation of the beating donor heart through the abdominal wall. Rejection is considered to be complete when heart beat stops. At that point the animal is euthanized and the transplanted heart is fixed for histology. […] The scale for grading for acute rejection is 1=slight; 2=moderate; 3=marked; 4=severe.

[2] = system: spleen cells from CBA and BALB/c mice; assay: Allogeneic two-way mixed lymphocyte reaction (MLR); type: cell-based; conditions: two-way mouse MLR, 3H-thymidine incorporation after four days, read-out: IC50 value (concentration required for 50% inhibition of proliferation)
Method: Cellular Assay: Allogeneic Mixed Lymphocyte Reaction (MLR)
The two-way MLR is performed according to standard procedures (J. Immunol. Methods, 1973, 2, 279 and Meo T. et al., Immunological Methods, New York, Academic Press, 1979, 227-39). Briefly, spleen cells from CBA and BALB/c mice (1.6×10^5 cells from each strain per well in flat bottom tissue culture microtiter plates, 3.2×10^5 in total) are incubated in RPMI medium containing 10% FCS, 100 U/ml penicillin, 100 μg/ml streptomycin (Gibco BRL, Basel, Switzerland), 50 μM 2-mercaptoethanol (Fluka, Buchs, Switzerland) and serially diluted compounds. Seven three-fold dilution steps in duplicates per test compound are performed. After four days of incubation 1 μCi ^3H-thymidine is added. Cells are harvested after an additional five-hour incubation period, and incorporated ^3H-thymidine is determined according to standard procedures. Background values (low control) of the MLR are the proliferation of BALB/c cells alone. Low controls are subtracted from all values. High controls without any sample are taken as 100% proliferation. Percent inhibition by the samples is calculated, and the concentrations required for 50% inhibition (IC50 values) are determined. In this assay, the agents of the invention have IC50 values in the range of 1 nM to 10 μM, preferably from 1 nM to 500 nM.

[3] = system: Balb/c (H-2d) heart graft in C57BL/6J (H-2b) recipients; assay: Acute rejection, heterotopic heart transplantation, graft survival; type: in vivo, mice; conditions: versus saline, across dosing schedules
Method: Balb/c (H-2^d) mice are used as donor animals, and e.g. C57BL/6J (H-2^b) mice as recipients. The heart is removed from the donors according to known procedures and stored in cold saline (4° C.). The recipient animals are anaesthetised with isofluorane. […] Blood vessels are dissected free from the fascia for a length of 3-5 mm, ligating and dividing any small branches. Vessels are occluded, first proximally and then distally. An arteriotomy and venotomy is performed, and lumens are flushed with heparinised physiological saline. […] The distal ligature is removed, then the proximal ligature. The suture lines are checked for leakage. Then the graft is tethered retroabdobminally. The abdomen is flooded with warm saline (37° C.) and the wound is closed. Graft function is monitored daily by palpation of the abdomen. Rejection is concluded when the graft stops beating. Animals are treated with a 100 μL subcutaneous injection of saline or a solution of a HDAI, e.g. the compound of formula (I), e.g. N-hydroxy-3-[4-[[[2-(2-methyl-1H-indol-3-yl)-ethyl]-amino]methyl]phenyl]-2E-2-propenamide in lactate buffer pH 5.5 according to the dosing schedule shown in Table 1 below: […]

CCCCCCCCc1ccc(CCC(N)(CO)CO)cc1 [Compound P3, FTY720, reference compound]
Median survival time (MST) ([1]; 0.1 mg/kg/d p.o., rat): 7.5

Cc1[nH]c2ccccc2c1CCNCc1ccc(/C=C/C(=O)NO)cc1 [Compound P1, N-hydroxy-3-[4-[[[2-(2-methyl-1H-indol-3-yl)-ethyl]-amino]methyl]phenyl]-2E-2-propenamide]
Median survival time (MST) ([1]; 0.3 mg/kg/d s.c., rat): 6 | Median survival time (MST) ([1]; 1.0 mg/kg/d s.c., rat): >28 | Survival (days) for each individual graft ([1]; 1.0 mg/kg/d s.c., rat): >28, >28, >28 days | effect of co-administration ([1]; co-administered with a mTOR inhibitor, e.g. 40-O-(2-hydroxyethyl)-rapamycin): synergistic effect | effect of co-administration ([1]; co-administered with a sphingosine 1-phosphate receptor agonist): synergistic effect | IC50 [2]: 9 nM | increases graft survival [3]: 2-5 times the number of days

CO[C@H]1C[C@@H]2CC[C@@H](C)[C@@](O)(O2)C(=O)C(=O)N2CCCC[C@H]2C(=O)O[C@H]([C@H](C)C[C@@H]2CC[C@@H](OCCO)[C@H](OC)C2)CC(=O)[C@H](C)/C=C(\C)[C@@H](O)[C@@H](OC)C(=O)[C@H](C)C[C@H](C)/C=C/C=C/C=C/1C [Compound P2, 40-O-(2-hydroxyethyl)-rapamycin, reference compound]
Median survival time (MST) ([1]; 0.3 mg/kg/d p.o., rat): 7
